This is an account of results in US20210317401A1, “USE OF CYSTEINE OR SALT THEREOF FOR CRYOPROTECTING LACTIC ACID BACTERIA” (CJ CHEILJEDANG CORPORATION, priority 2018, published 2021).

In assay [1] the test system is Lactobacillus plantarum CJLP133. The assay is described as follows: High-concentration culturing of lactic acid bacteria, number of live bacteria. Type of assay: cell-based. The following applies: 0.1% in MRS liquid medium; from live bacteria counts. The protocol:
(§1) A Lactobacillus plantarum CJLP133 strain was cultured at 37° C. for 11 hours in an MRS liquid medium (Difco, USA) containing 0.1% of cysteine monohydrochloride.
(§2) A Lactobacillus plantarum CJLP133 strain was cultured at 37° C. for 11 hours in an MRS liquid medium (Difco, USA) not containing 0.1% of cysteine monohydrochloride.
A lactic acid bacteria culture solution was diluted with sterilized physiological water and smeared so that 30 to 300 colonies were formed in an MRS agar plate medium, and then cultured at 37° C. for 24 hours. The number of colonies observed after the culturing was counted and calculated as the number of live bacteria per mL.

Assay [2] shares this test system. The assay is described as follows: High-concentration culturing of lactic acid bacteria, O.D. value. Type of assay: cell-based. The note with it: 0.1% in MRS liquid medium; from O.D. results. The protocol: as §1, §2
The evaluation of the lactic acid bacteria culturing was measured by diluting a lactic acid bacteria culture solution 20 times at 600 nm using a spectrophotometer (NanoPhotometer, IMPLEN) according to the method for measuring an optical density (O.D.) value of Korean Food Additives Codex.

For the compound `Cl.N[C@@H](CS)C(=O)O` [cysteine monohydrochloride], the “ability to accelerate the growth of lactic acid bacteria (in words)” value in assay [1] and in assay [2] was “excellent” in each case.
